{"source": "PubChem BioAssay AID602237", "about": "(National Center for Advancing Translational Sciences (NCATS), 2012)", "system": "aqueous kinetic solubility, PBS pH 7.4, LC-UV/MS", "assay": "qHTS for Activators of Human alpha-Glucosidase as a Potential Chaperone Treatment of Pompe Disease: Aqueous Solubility", "conditions": "hits give high values", "description": "Alpha-glucosidase is responsible for hydrolysis of terminal, non-reducing 1,4-linked alpha-D-glucose residues with release of alpha-D-glucose. It is a lysosomal hydrolase that is required for the degradation of a small percentage (1-3%) of cellular glycogen in human. Deficiency of this enzyme results in glycogen-storage disease type II (GSDII), also referred to as Pompe disease, an autosomal recessive disorder. Structurally normal glycogen is accumulated in lysosomes and cytoplasm in affected patients, primarily in muscle tissues. Excessive glycogen storage within lysosomes may interrupt normal functioning of other organelles and leads to cellular injury. In turn, this leads to enlargement and dysfunction of the entire organ involved (eg, cardiomyopathy and muscle weakness). It has reported that the improper folding and trafficking of alpha-glucosidase resulting from the genetic mutations may account for a significant number of Pompe patients. […]\n1. […] Concentration of the supernatant was determined by LC-UV or LC-MS/MS […]", "data": [{"smiles": "CCCN1CNc2c(c(=O)[nH]c(=S)n2Cc2ccc(OC)c(OC)c2)C1", "values": [{"measurement": "solubility", "result": 289, "unit": "µM"}]}]}
